ChEMBL document CHEMBL1152339, “Use of the in vivo hollow fiber assay in natural products anticancer drug discovery” (J Nat Prod, 2009)

What was measured:
Type in all cases: functional
KB [1] = experiment: Growth inhibition of human KB cells xenografted in NCr nu/nu mouse at 6.25 to 25 mg/kg, ip once daily administered from day 3 to 6 after implantation measured on day 7 by MTT-based hollow-fiber test; conditions: route intraperitoneal
Col2 [2] = experiment: Growth inhibition of human Col2 cells xenografted in ip dosed NCr nu/nu mouse administered once daily from day 3 to 6 after implantation measured on day 7 by MTT-based hollow-fiber test
Col2 [3] = experiment: Growth inhibition of human Col2 cells xenografted in NCr nu/nu mouse at 6.25 to 25 mg/kg, sc once daily administered from day 3 to 6 after implantation measured on day 7 by MTT-based hollow-fiber test; conditions: route subcutaneous
LNCaP [4] = experiment: Growth inhibition of human LNCAP cells xenografted in NCr nu/nu mouse at 6.25 to 25 mg/kg, ip once daily administered from day 3 to 6 after implantation measured on day 7 by MTT-based hollow-fiber test; conditions: route intraperitoneal
KB [5] = experiment: Growth inhibition of human KB cells xenografted in NCr nu/nu mouse at 6.25 to 25 mg/kg, sc once daily administered from day 3 to 6 after implantation measured on day 7 by MTT-based hollow-fiber test; conditions: route subcutaneous
LNCaP [6] = experiment: Growth inhibition of human LNCAP cells xenografted in ip dosed NCr nu/nu mouse administered once daily from day 3 to 6 after implantation measured on day 7 by MTT-based hollow-fiber test
Col2 [7] = experiment: Growth inhibition of human Col2 cells xenografted in NCr nu/nu mouse at 6.25 to 25 mg/kg, ip once daily administered from day 3 to 6 after implantation measured on day 7 by MTT-based hollow-fiber test; conditions: route intraperitoneal
LNCaP [8] = experiment: Growth inhibition of human LNCAP cells xenografted in NCr nu/nu mouse at 6.25 to 25 mg/kg, sc once daily administered from day 3 to 6 after implantation measured on day 7 by MTT-based hollow-fiber test; conditions: route subcutaneous
SW626 [9] = experiment: Growth inhibition of human SW626 cells xenografted in NCr nu/nu mouse at 3.75 to 30 mg/kg, ip once daily administered from day 3 to 6 after implantation measured on day 7 by MTT-based hollow-fiber test; conditions: dose mg/kg 3-6; route intraperitoneal
SW626 [10] = experiment: Growth inhibition of human SW626 cells xenografted in NCr nu/nu mouse at 3.75 to 30 mg/kg, sc once daily administered from day 3 to 6 after implantation measured on day 7 by MTT-based hollow-fiber test; conditions: dose mg/kg 3-6; route subcutaneous
KB [11] = experiment: Growth inhibition of human KB cells xenografted in NCr nu/nu mouse at 3.75 to 30 mg/kg, ip once daily administered from day 3 to 6 after implantation measured on day 7 by MTT-based hollow-fiber test; conditions: route intraperitoneal
KB [12] = experiment: Growth inhibition of human KB cells xenografted in NCr nu/nu mouse at 3.75 to 30 mg/kg, sc once daily administered from day 3 to 6 after implantation measured on day 7 by MTT-based hollow-fiber test; conditions: route subcutaneous
SW626 [13] = experiment: Growth inhibition of human SW626 cells xenografted in ip dosed NCr nu/nu mouse administered once daily from day 3 to 6 after implantation measured on day 7 by MTT-based hollow-fiber test

SMILES	growth inhibition (GI) (KB [1])	ED50 (Col2 [2])	growth inhibition (GI) (Col2 [3])	growth inhibition (GI) (LNCaP [4])	growth inhibition (GI) (KB [5])	ED50 (LNCaP [6])	growth inhibition (GI) (Col2 [7])	growth inhibition (GI) (LNCaP [8])	growth inhibition (GI) (SW626 [9])	growth inhibition (GI) (SW626 [10])	growth inhibition (GI) (KB [11])	growth inhibition (GI) (KB [12])	ED50 (SW626 [13])
CC(=O)O[C@H]1O[C@H]([C@@H]2c3cccc(O)c3C(=O)c3c(O)cc(C)cc32)[C@H](O)[C@@H](OC(=O)C=C(C)C)[C@H]1O [ALVARADOIN G]	79%	1300 nM	0%	52%	13%	290 nM	84%	24%	–	–	–	–	–
CC(=O)O[C@H]1C(=O)[C@@]2(C)[C@H]([C@H](OC(=O)c3ccccc3)[C@]3(O)C[C@H](OC(=O)[C@H](O)[C@@H](NC(=O)c4ccccc4)c4ccccc4)C(C)=C1C3(C)C)[C@]1(OC(C)=O)CO[C@@H]1C[C@@H]2O [PACLITAXEL]	–	–	–	–	–	–	–	–	98%	0%	70%	20%	0.012 nM
